US9458437B2, “Neuroprotective peptides that inhibit interaction between palmitoyl acyl transferase zinc-finger DHHC type containing 17 (zD17) and c-jun N-terminal kinase (JNK)” (The University of British Columbia, priority 2011, dated 2016)

What was measured:
[1] = molecular target: T1, JNK3 (Rattus norvegicus, UniProt P49187); assay: kinase assay (KA) on JNK3 immunoprecipitated from cell lysates; type: cell-based; conditions: for JNK3 activity normalized to 0 h: NMDA + NIMoE
T1 construct: cell lysates were prepared and JNK was immunoprecipitated with specific antibodies; endogenous in cells; host or cells: rat primary neuronal cultures; JNK3 immunoprecipitated from lysate
T1 sequence (P49187 whole entry): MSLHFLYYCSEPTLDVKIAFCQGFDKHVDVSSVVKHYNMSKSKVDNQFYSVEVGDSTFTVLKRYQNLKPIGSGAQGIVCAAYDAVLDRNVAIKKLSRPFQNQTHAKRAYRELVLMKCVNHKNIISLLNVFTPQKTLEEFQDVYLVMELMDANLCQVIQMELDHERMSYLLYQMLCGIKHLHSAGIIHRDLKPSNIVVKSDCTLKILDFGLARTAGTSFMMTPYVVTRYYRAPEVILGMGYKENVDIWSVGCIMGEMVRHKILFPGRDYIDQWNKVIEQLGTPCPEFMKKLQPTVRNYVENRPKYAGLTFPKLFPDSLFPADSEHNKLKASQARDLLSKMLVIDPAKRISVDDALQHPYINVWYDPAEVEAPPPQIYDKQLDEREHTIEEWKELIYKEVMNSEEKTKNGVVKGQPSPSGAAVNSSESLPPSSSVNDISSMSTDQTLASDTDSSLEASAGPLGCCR
Procedure: (§1) JNK activity was measured with an in vitro kinase assay as described elsewhere (see, for e.g.: Khatlani et al., 2007). Briefly, cell lysates were prepared and JNK was immunoprecipitated with specific antibodies. The immnoprecipitates were then resuspended in 1× kinase buffer (Cell Signaling Technology™) supplemented with 200 μM ATP and 250 μg/ml GST-c-jun (1-89), and incubated at 30° C. for 30 min. Reactions were terminated by the addition of SDS-PAGE sample buffer. Phosphorylated c-jun was resolved by SDS-PAGE and detected with anti-p-c-jun.

[2] = test system: c-jun; assay: NMDA-induced c-jun phosphorylation in neurons; type: cell-based, rat; conditions: neuronal cultures
[3] = molecular target: T2, JNK1 (Rattus norvegicus, UniProt P49185); assay: kinase assay (KA) on JNK1 immunoprecipitated from cell lysates; type: cell-based; conditions: for JNK1 activity normalized to 0 h: NMDA + NIMoE
T2 construct: JNK is immunoprecipitated from the cell lysate; endogenous in cells; host or cells: rat primary neuronal cultures; JNK1 immunoprecipitated from lysate
T2 sequence (P49185 whole entry): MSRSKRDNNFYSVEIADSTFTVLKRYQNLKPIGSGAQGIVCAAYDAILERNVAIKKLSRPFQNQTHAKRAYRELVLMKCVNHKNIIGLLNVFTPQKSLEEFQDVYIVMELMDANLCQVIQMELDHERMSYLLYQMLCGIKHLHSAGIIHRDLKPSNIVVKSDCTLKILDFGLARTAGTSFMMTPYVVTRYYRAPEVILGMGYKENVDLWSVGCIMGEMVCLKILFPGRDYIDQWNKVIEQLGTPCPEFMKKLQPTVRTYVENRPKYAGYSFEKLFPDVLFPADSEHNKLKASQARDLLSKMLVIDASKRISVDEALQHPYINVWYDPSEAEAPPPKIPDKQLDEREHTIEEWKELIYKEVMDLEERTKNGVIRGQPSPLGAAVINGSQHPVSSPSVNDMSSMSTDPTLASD
Procedure: as §1

[4] = molecular target: T3, JNK2 (Rattus norvegicus, UniProt P49186); assay: kinase assay (KA) on JNK2 immunoprecipitated from cell lysates; type: cell-based; conditions: for JNK2 activity normalized to 0 h: NMDA + NIMoE
T3 construct: JNK is immunoprecipitated from the cell lysate; endogenous in cells; host or cells: rat primary neuronal cultures; JNK2 immunoprecipitated from lysate
Procedure: as §1

[5] = test system: caspase-3; assay: NMDA-induced caspase-3 cleavage in neurons; type: cell-based, rat; conditions: neuronal cultures
[6] = molecular target: zD17-JNK3 interaction (Rattus norvegicus, UniProt P49187); assay: co-immunoprecipitation of zD17 with JNK3 in cortical neuronal cultures; type: cell-based; set-up: diminished the co-immunoprecipitation of zD17 with JNK3; endogenous in cells; host or cells: primary cortical neurons of embryonic (E18-19) Wistar rat
Chain of zD17-JNK3 interaction (P49187 whole entry): as the sequence (P49187 whole entry) above
Procedure: (§2) All animal experiments were approved by the Animal Care Committee of the University of British Columbia. Primary cortical cultures were prepared from Wistar rat (UBC Animal Care Centre, Vancouver, BC, Canada) brains at embryonic days 18-19. Cultures were maintained in Neurobasal medium supplemented with B27 and 0.5 mM glutamax (Invitrogen™) as described previously (Yang et al., 2009).
(§3) The protocols for protein extraction have been described previously (Yang et al., 2009). For co-immunoprecipitation, cultured cells were washed with ice-cold PBS followed by incubation with 0.5 ml Gentle Lysis Buffer (GLB) containing 25 mM Tris-HCl (pH 7.4), 2 mM EDTA, 1 mM EGTA, 10 mM NaCl, 0.5% Triton X-100 and 10% Glycerol supplemented with the Complete Protease Inhibitor Tablets (Roche Applied Science™, Indianapolis, Ind., USA) and 1 mM PMSF. Total protein concentration was determined with the BioRad™ Protein Assay kit. Lysates were first precleaned by incubating with Protein A-Sepharose beads (Roche Applied Science™) for 1 h at 4° C., followed by incubation with indicated antibodies (>16 h at 4° C.) and protein A Sepharose bead (2 h at 4° C.). Lysates of rat brain tissues were precleaned with IgG and protein A-beads. Immunoprecipitates were washed three times with GLB buffer; boiled in 2× loading buffer with 1 mM dithiothreitol (DTT) for 3 min; and analyzed with SDS-PAGE as described previously (Yang et al., 2009). The relative intensities of the bands on immunoblots were analyzed and quantified using Image J™ (NIH).

[7] = test system: Bax and Cyt.c; assay: NMDA-induced translocation of Bax and Cyt.c (mitochondria fractionation); type: cell-based, rat; conditions: neuronal cultures
Procedure: Cultured neurons were lysed on ice for 10 min in TEEN-SKM buffer containing 20 mM Tris-HCl (pH7.5), 10 mM KCl, 1.5 mM MgCl2, 1 mM EGTA, 1 mM EDTA, 1 mM DTT supplemented with the Complete Protease Inhibitor tablets. The lysates were homogenized with a 28^1/2G syringe for a total of 8 times on ice, followed by centrifugation twice at 700 g for 10 min at 4° C. The supernatant was then centrifuged at 10,000 g for 30 min at 4° C. to enrich mitochondria in the pellet. The cytosolic fraction was collected from the supernatant after further centrifugation at 100,000 g for 1 h at 4° C. 1× and 4×LB were added to the mitochondrial and cytosolic fractions, respectively. Equivalent amounts of samples were resolved by SDS-PAGE and blotted with antibodies against Cytochrome c and Bax.

[8] = molecular target: T4, zD17-JNK2 interaction (Rattus norvegicus, UniProt P49186); assay: co-immunoprecipitation of zD17 with JNK2 in neuronal cultures; type: cell-based; conditions: NMDA
T4 construct: endogenous in cells; host or cells: primary cortical neurons of embryonic Wistar rat
Procedure: as §2, §3

[9] = test system: cultured neurons; assay: axonal development in cultured neurons (Tau-1 labelling); type: cell-based, rat
Procedure: For biochemical studies, neurons were seeded in six-well culture plates with a density of 7.5×10^5 cells per well. For LDH assay and cell death detection, 24-well culture plates were used with a neuron density of 2.5×10^5 cells per well. Neurons of 14-17 days in vitro (DIV) were used for experiments. […] HEK 293 cells were maintained in DMEM (Invitrogen™) supplemented with 10% fetal bovine serum and 1% penicillin/streptomycin. For protein expression in cell lines, cells were transfected with Calcium Phosphate Transfection reagent (Promega™, San Luis Obispo, Calif., USA) and used 24 h later as described previously (Yang et al., 2009). The JNK inhibitor, L-JNKI, was purchased from Alexis Biochemicals™ (San Diego, Calif.). Thrombin was obtained from BIOPUR™ (Bubendorf, Switzerland). Other assay reagents without indication were obtained from Sigma™.
Cultured hippocampal neurons on glass coverslips were used for immunostaining. After treatments indicated in the text, neurons were fixed with 2% paraformaldehyde for 3 min at room temperature followed by permeabilization with ice-cold methanol for 10 min at −20° C. The coverslips were then washed three times with PBS and immunostained with appropriate antibodies dissolved in PBS for 1 h at room temperature. After washing three times with PBS, coverslips were incubated with Alexa-labeled secondary antibodies from Invitrogen for an additional 1 h. For mitochondrial detection, neuronal cultures were incubated at 37° C. for 30 min with 2 μM MitoTracker-TR (Invitrogen™). Coverslips were then fixed and mounted with ProLong Gold Antifade Reagent (Invitrogen™). Fluorescence was captured using a Zeiss Observer Z1™ microscope and all images were analyzed with ImageJ™ and processed using Adobe Photoshop™.

[10] = test system: middle cerebral artery occlusion (MCAo); assay: transient MCAo in SD rats, adhesive removal test (ART); type: in vivo, Sprague-Dawley rat; set-up: unit not given here; conditions: peptide given 4 h after MCAo onset

Sequence | enhancement of JNK3 activity induced by NMDA ([1]; neuronal cultures) | NMDA-induced c-jun phosphorylation [2] | NMDA-induced caspase-3 cleavage [5] | enhancement of the zD17-JNK3 interaction induced by NMDA/excitotoxicity [6] | NMDA-induced translocation of Bax and Cyt.c [7] | ART ([10]; day-1) | ART ([10]; day-3) | ART ([10]; day-7) | ART ([10]; day-14) | further results
MTPLMWAAYRTHSVDPTRLL (listed as Homo sapiens) [NIMoE, peptide comprising motif-E of zD17, fused to the cell-membrane transduction domain of HIV-1 Tat for cell experiments] | selectively blocked the enhancement | able to prevent | effectively blocked | selectively blocked the enhancement | inhibited |  |  |  |  | JNK3 activity normalized to 0 h ([1]; 0.5 h): 90.6±5.3%; JNK3 activity normalized to 0 h ([1]; 1 h): 47.0±17.6%; JNK3 basal activity ([1]; neuronal cultures): no effect; JNK3 basal activity, fold change to control ([1]; pretreatment of cells 1 μM for 2 h): 0.89±0.10 fold; JNK1 activity normalized to 0 h ([3]; 0.5 h): 104.3±2.6%; JNK1 activity normalized to 0 h ([3]; 1 h): 168.5±3.3%; normal activation of JNK1 ([3]; NMDA, neuronal cultures): did not inhibit; JNK2 activity normalized to 0 h ([4]; 0.5 h): 103.7±5.0%; JNK2 activity normalized to 0 h ([4]; 1 h): 90.9±10.9%; enhancement of JNK2 activity ([4]; NMDA, neuronal cultures): eliminated the enhancement; zD17-JNK3 interaction (co-immunoprecipitation), baseline ([6]; no NMDA): no effect; enhancement of the JNK2-zD17 interaction [8]: eliminated the enhancement; axon extension (length) ([9]; NIMoE incubation, control 160.0±8.9): 161.1±13.6; effect on axon initiation and extension ([9]; chronic incubation in cultured neurons): did not affect; axon initiation rate normalized to control ([9]; incubation of cultured neurons, Tau-1 marker): 98.6±0.2%
WAAYRTHSVD (listed as Homo sapiens) [NIMoEsh, shorter 10mer of NIMoE, primarily the loop region of motif-E (zD17 196-205)] |  | able to prevent | effectively blocked |  | inhibited | 52.57±6.82 | 73.86±9.63 | 94.86±7.33 | 101.43±3.35 | 
HRYRWLTDLLSMVTTPAAPM (NIMoEscr scrambled NIMoE) [negative control peptide resulting from a scrambled NIMoE, reference compound] | did not selectively block enhancement |  |  | did not selectively block enhancement |  | 12.63±3.14 | 34.13±6.88 | 59.13±5.67 | 81.88±4.44 | 
